Assay results taken from PubChem BioAssay (NCI).
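A five-concentration, 48-hour dose response in 96-well plates underlies each endpoint, interpolated linearly between surrounding concentrations. At the TGI there is no net growth.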

Legend:
Experiment in all cases: NCI-60 cell line screen, 48 h
786-0 renal = test system: 786-0 renal
A498 renal = test system: A498 renal
A549 NSCLC = test system: A549 NSCLC
ACHN renal = test system: ACHN renal
BT-549 breast = test system: BT-549 breast
CAKI-1 renal = test system: CAKI-1 renal
CCRF-CEM leukemia = test system: CCRF-CEM leukemia
COLO 205 colon = test system: COLO 205 colon
DU-145 prostate = test system: DU-145 prostate
EKVX NSCLC = test system: EKVX NSCLC
HCC-2998 colon = test system: HCC-2998 colon
HCT-116 colon = test system: HCT-116 colon
HCT-15 colon = test system: HCT-15 colon
HL-60(TB) leukemia = test system: HL-60(TB) leukemia
HOP-62 NSCLC = test system: HOP-62 NSCLC
HOP-92 NSCLC = test system: HOP-92 NSCLC
HS 578T breast = test system: HS 578T breast
HT29 colon = test system: HT29 colon
IGROV1 ovarian = test system: IGROV1 ovarian
K-562 leukemia = test system: K-562 leukemia
KM12 colon = test system: KM12 colon
LOX IMVI melanoma = test system: LOX IMVI melanoma
M14 melanoma = test system: M14 melanoma
MALME-3M melanoma = test system: MALME-3M melanoma
MCF7 breast = test system: MCF7 breast
MDA-MB-231 breast = test system: MDA-MB-231 breast
MDA-MB-435 = test system: MDA-MB-435
MDA-N = test system: MDA-N
MOLT-4 leukemia = test system: MOLT-4 leukemia
NCI-H226 lung = test system: NCI-H226 lung
NCI-H23 lung = test system: NCI-H23 lung
NCI-H460 lung = test system: NCI-H460 lung
NCI-H522 lung = test system: NCI-H522 lung
NCI/ADR-RES ovarian = test system: NCI/ADR-RES ovarian
OVCAR-3 ovarian = test system: OVCAR-3 ovarian
OVCAR-4 ovarian = test system: OVCAR-4 ovarian
OVCAR-5 ovarian = test system: OVCAR-5 ovarian
OVCAR-8 ovarian = test system: OVCAR-8 ovarian
PC-3 prostate = test system: PC-3 prostate
RPMI-8226 leukemia = test system: RPMI-8226 leukemia
RXF 393 renal = test system: RXF 393 renal
SF-268 CNS = test system: SF-268 CNS
SF-295 CNS = test system: SF-295 CNS
SF-539 CNS = test system: SF-539 CNS
SK-MEL-2 melanoma = test system: SK-MEL-2 melanoma
SK-MEL-5 melanoma = test system: SK-MEL-5 melanoma
SK-OV-3 ovarian = test system: SK-OV-3 ovarian
SN12C renal = test system: SN12C renal
SNB-19 CNS = test system: SNB-19 CNS
SR leukemia = test system: SR leukemia
SW-620 colon = test system: SW-620 colon
T-47D breast = test system: T-47D breast
TK-10 renal = test system: TK-10 renal
U251 CNS = test system: U251 CNS
UACC-257 melanoma = test system: UACC-257 melanoma
UACC-62 melanoma = test system: UACC-62 melanoma
UO-31 renal = test system: UO-31 renal
SK-MEL-28 melanoma = test system: SK-MEL-28 melanoma
SNB-75 CNS = test system: SNB-75 CNS

Cc1nnc2sc(-c3ccc(-c4ccccc4Cl)o3)nn12
TGI (786-0 renal): 80.1 µM
TGI (A498 renal): > 100 µM
TGI (A549 NSCLC): > 100 µM
TGI (ACHN renal): > 100 µM
TGI (BT-549 breast): 60.3 µM
TGI (CAKI-1 renal): > 100 µM
TGI (CCRF-CEM leukemia): > 100 µM
TGI (COLO 205 colon): > 100 µM
TGI (DU-145 prostate): > 100 µM
TGI (EKVX NSCLC): > 100 µM
TGI (HCC-2998 colon): 64.4 µM
TGI (HCT-116 colon): 44.2 µM
TGI (HCT-15 colon): 86 µM
TGI (HL-60(TB) leukemia): 63.3 µM
TGI (HOP-62 NSCLC): > 100 µM
TGI (HOP-92 NSCLC): > 100 µM
TGI (HS 578T breast): > 100 µM
TGI (HT29 colon): > 100 µM
TGI (IGROV1 ovarian): > 100 µM
TGI (K-562 leukemia): 56.8 µM
TGI (KM12 colon): > 100 µM
TGI (LOX IMVI melanoma): 53.2 µM
TGI (M14 melanoma): > 100 µM
TGI (MALME-3M melanoma): > 100 µM
TGI (MCF7 breast): > 100 µM
TGI (MDA-MB-231 breast): > 100 µM
TGI (MDA-MB-435): 44 µM
TGI (MDA-N): 40.6 µM
TGI (MOLT-4 leukemia): 51.1 µM
TGI (NCI-H226 lung): 83.5 µM
TGI (NCI-H23 lung): 74.2 µM
TGI (NCI-H460 lung): > 100 µM
TGI (NCI-H522 lung): 78.4 µM
TGI (NCI/ADR-RES ovarian): 52.8 µM
TGI (OVCAR-3 ovarian): 84.7 µM
TGI (OVCAR-4 ovarian): > 100 µM
TGI (OVCAR-5 ovarian): > 100 µM
TGI (OVCAR-8 ovarian): 53.1 µM
TGI (PC-3 prostate): > 100 µM
TGI (RPMI-8226 leukemia): 60 µM
TGI (RXF 393 renal): > 100 µM
TGI (SF-268 CNS): > 100 µM
TGI (SF-295 CNS): > 100 µM
TGI (SF-539 CNS): 45.9 µM
TGI (SK-MEL-2 melanoma): 86.7 µM
TGI (SK-MEL-5 melanoma): 61.3 µM
TGI (SK-OV-3 ovarian): > 100 µM
TGI (SN12C renal): > 100 µM
TGI (SNB-19 CNS): > 100 µM
TGI (SR leukemia): 53.6 µM
TGI (SW-620 colon): > 100 µM
TGI (T-47D breast): 91.6 µM
TGI (TK-10 renal): > 100 µM
TGI (U251 CNS): > 100 µM
TGI (UACC-257 melanoma): > 100 µM
TGI (UACC-62 melanoma): > 100 µM
TGI (UO-31 renal): > 100 µM

C/C(=N\NC(N)=O)C(CN(C)C)C(c1ccccc1)c1c(O)c2ccccc2oc1=O (stereo not given)
TGI (786-0 renal): > 100 µM
TGI (A498 renal): > 100 µM
TGI (A549 NSCLC): > 100 µM
TGI (ACHN renal): > 100 µM
TGI (BT-549 breast): > 100 µM
TGI (CAKI-1 renal): > 100 µM
TGI (CCRF-CEM leukemia): > 100 µM
TGI (COLO 205 colon): > 100 µM
TGI (DU-145 prostate): > 100 µM
TGI (EKVX NSCLC): > 100 µM
TGI (HCC-2998 colon): > 100 µM
TGI (HCT-116 colon): > 100 µM
TGI (HCT-15 colon): > 100 µM
TGI (HL-60(TB) leukemia): > 100 µM
TGI (HOP-62 NSCLC): > 100 µM
TGI (HOP-92 NSCLC): 7.67 µM
TGI (HS 578T breast): > 100 µM
TGI (HT29 colon): > 100 µM
TGI (IGROV1 ovarian): > 100 µM
TGI (K-562 leukemia): > 100 µM
TGI (KM12 colon): > 100 µM
TGI (LOX IMVI melanoma): > 100 µM
TGI (M14 melanoma): > 100 µM
TGI (MALME-3M melanoma): > 100 µM
TGI (MCF7 breast): > 100 µM
TGI (MDA-MB-231 breast): > 100 µM
TGI (MDA-MB-435): > 100 µM
TGI (MDA-N): > 100 µM
TGI (MOLT-4 leukemia): > 100 µM
TGI (NCI-H226 lung): > 100 µM
TGI (NCI-H23 lung): > 100 µM
TGI (NCI-H460 lung): > 100 µM
TGI (NCI-H522 lung): > 100 µM
TGI (NCI/ADR-RES ovarian): > 100 µM
TGI (OVCAR-3 ovarian): > 100 µM
TGI (OVCAR-4 ovarian): > 100 µM
TGI (OVCAR-5 ovarian): > 100 µM
TGI (OVCAR-8 ovarian): > 100 µM
TGI (PC-3 prostate): > 100 µM
TGI (RPMI-8226 leukemia): > 100 µM
TGI (RXF 393 renal): > 100 µM
TGI (SF-268 CNS): > 100 µM
TGI (SF-295 CNS): > 100 µM
TGI (SF-539 CNS): > 100 µM
TGI (SK-MEL-2 melanoma): > 100 µM
TGI (SK-MEL-28 melanoma): > 100 µM
TGI (SK-MEL-5 melanoma): > 100 µM
TGI (SN12C renal): > 100 µM
TGI (SNB-19 CNS): > 100 µM
TGI (SNB-75 CNS): > 100 µM
TGI (SR leukemia): > 100 µM
TGI (SW-620 colon): > 100 µM
TGI (T-47D breast): > 100 µM
TGI (TK-10 renal): > 100 µM
TGI (U251 CNS): > 100 µM
TGI (UACC-257 melanoma): > 100 µM
TGI (UACC-62 melanoma): > 100 µM
TGI (UO-31 renal): > 100 µM
